Experimental data taken from ChEMBL document CHEMBL3991601, “The target landscape of clinical kinase drugs” (Science, 2017).
Calls of active or inactive are those of the source.

Experiments:
[1] = target: Ribosomal protein S6 kinase alpha-3 (Homo sapiens, UniProt P51812)
[2] = target: Calcium/calmodulin-dependent protein kinase type II subunit delta (Homo sapiens, UniProt Q13557)
[3] = target: T1, DNA replication licensing factor MCM4 (Homo sapiens, UniProt P33991)
T1 sequence (P33991 whole entry): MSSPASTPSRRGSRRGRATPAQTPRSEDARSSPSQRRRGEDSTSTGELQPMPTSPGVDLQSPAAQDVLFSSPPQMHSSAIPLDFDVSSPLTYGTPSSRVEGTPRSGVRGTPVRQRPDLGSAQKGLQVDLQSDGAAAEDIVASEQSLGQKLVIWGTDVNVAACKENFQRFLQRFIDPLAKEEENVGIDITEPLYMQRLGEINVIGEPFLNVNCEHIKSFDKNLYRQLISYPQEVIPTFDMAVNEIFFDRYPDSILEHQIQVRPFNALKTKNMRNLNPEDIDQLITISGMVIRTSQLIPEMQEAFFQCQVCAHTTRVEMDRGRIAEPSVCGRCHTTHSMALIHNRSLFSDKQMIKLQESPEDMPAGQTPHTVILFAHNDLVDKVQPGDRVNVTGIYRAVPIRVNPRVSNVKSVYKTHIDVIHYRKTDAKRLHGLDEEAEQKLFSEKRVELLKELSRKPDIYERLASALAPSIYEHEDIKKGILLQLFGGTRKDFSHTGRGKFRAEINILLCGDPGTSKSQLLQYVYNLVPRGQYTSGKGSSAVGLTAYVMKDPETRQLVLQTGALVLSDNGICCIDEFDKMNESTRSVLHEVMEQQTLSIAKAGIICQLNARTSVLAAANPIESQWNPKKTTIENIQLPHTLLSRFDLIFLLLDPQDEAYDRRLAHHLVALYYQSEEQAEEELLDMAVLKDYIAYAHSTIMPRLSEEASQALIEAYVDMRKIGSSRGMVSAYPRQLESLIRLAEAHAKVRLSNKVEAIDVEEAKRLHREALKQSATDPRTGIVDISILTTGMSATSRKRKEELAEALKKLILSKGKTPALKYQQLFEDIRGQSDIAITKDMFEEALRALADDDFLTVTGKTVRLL

Focal adhesion kinase 1 = Focal adhesion kinase 1 (Homo sapiens, UniProt Q05397)
[4] = target: T2, Acyl-CoA dehydrogenase family member 10 (Homo sapiens, UniProt Q6JQN1)
T2 sequence (Q6JQN1 whole entry): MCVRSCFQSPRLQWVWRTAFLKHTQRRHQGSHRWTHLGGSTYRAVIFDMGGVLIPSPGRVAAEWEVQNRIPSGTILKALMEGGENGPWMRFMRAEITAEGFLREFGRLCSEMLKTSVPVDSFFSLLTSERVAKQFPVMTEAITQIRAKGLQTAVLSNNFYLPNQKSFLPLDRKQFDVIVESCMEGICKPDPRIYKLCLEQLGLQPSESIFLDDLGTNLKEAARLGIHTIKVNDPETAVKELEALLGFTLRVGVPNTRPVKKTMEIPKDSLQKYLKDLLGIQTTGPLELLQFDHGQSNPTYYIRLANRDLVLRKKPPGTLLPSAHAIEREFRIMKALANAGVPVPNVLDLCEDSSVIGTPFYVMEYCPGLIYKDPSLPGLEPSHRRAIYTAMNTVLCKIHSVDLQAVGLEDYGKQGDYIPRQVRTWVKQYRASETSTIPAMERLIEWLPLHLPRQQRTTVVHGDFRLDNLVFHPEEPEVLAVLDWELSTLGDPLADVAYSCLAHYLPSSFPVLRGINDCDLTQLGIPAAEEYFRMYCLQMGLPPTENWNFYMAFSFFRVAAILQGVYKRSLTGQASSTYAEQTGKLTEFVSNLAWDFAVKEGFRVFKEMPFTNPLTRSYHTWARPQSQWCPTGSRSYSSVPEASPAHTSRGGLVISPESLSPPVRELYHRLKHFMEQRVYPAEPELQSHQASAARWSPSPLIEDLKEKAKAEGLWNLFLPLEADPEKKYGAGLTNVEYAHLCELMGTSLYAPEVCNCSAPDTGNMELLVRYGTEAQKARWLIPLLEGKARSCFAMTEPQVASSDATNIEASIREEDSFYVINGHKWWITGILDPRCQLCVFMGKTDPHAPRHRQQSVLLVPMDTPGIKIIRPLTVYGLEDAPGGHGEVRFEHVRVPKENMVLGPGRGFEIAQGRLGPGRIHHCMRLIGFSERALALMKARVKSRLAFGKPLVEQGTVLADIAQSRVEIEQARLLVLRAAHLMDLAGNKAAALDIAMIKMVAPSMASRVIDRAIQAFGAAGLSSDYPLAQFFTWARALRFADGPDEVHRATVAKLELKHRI

[5] = target: DnaJ homolog subfamily A member 1 (Homo sapiens, UniProt P31689)
[6] = target: Mitogen-activated protein kinase 7 (Homo sapiens, UniProt Q13164)
[7] = target: T3, cGMP-dependent protein kinase 1 (Homo sapiens, UniProt Q13976)
T3 sequence (Q13976 whole entry): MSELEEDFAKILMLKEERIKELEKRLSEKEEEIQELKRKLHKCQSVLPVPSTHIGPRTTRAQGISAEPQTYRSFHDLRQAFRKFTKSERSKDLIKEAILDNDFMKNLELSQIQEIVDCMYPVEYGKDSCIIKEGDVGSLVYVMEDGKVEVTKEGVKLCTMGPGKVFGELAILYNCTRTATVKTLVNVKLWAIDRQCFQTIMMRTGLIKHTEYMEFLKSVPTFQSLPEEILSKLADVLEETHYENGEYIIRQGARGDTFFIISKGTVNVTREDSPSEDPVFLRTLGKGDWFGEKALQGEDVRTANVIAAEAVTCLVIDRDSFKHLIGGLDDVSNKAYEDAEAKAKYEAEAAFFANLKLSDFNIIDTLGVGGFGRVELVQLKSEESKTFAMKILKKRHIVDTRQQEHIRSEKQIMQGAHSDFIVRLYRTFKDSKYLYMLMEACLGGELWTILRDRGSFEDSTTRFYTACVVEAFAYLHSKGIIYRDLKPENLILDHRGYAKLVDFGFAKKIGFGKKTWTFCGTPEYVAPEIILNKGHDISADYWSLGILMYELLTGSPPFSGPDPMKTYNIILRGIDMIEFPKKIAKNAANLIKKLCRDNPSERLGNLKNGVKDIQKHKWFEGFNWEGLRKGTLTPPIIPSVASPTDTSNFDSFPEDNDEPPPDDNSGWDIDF
Further: in the data inactive means no Kd found up to 30 µM.

Sequence of Mitogen-activated protein kinase 7 (Q13164 whole entry): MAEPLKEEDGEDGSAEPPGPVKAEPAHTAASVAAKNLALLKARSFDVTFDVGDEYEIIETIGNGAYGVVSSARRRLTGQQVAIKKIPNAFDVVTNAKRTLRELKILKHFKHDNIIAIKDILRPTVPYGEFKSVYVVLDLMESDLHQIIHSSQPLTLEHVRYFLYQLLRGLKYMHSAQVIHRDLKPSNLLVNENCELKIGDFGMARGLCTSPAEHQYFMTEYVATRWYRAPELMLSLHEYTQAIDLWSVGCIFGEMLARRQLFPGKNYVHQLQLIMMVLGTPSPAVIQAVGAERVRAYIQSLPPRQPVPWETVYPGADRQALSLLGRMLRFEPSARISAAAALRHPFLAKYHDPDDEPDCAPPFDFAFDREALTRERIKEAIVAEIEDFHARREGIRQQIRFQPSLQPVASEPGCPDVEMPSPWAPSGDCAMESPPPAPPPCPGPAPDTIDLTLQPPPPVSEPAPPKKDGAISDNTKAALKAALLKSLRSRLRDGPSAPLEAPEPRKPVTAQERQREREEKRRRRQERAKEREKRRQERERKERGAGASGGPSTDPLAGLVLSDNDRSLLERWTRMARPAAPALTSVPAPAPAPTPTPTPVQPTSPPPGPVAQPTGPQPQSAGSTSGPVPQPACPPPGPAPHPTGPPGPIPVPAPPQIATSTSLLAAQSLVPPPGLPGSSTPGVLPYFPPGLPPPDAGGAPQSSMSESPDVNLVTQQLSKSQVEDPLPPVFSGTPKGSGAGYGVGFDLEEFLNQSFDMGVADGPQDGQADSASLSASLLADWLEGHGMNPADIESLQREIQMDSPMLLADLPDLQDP
Sequence of Focal adhesion kinase 1 (Q05397 whole entry): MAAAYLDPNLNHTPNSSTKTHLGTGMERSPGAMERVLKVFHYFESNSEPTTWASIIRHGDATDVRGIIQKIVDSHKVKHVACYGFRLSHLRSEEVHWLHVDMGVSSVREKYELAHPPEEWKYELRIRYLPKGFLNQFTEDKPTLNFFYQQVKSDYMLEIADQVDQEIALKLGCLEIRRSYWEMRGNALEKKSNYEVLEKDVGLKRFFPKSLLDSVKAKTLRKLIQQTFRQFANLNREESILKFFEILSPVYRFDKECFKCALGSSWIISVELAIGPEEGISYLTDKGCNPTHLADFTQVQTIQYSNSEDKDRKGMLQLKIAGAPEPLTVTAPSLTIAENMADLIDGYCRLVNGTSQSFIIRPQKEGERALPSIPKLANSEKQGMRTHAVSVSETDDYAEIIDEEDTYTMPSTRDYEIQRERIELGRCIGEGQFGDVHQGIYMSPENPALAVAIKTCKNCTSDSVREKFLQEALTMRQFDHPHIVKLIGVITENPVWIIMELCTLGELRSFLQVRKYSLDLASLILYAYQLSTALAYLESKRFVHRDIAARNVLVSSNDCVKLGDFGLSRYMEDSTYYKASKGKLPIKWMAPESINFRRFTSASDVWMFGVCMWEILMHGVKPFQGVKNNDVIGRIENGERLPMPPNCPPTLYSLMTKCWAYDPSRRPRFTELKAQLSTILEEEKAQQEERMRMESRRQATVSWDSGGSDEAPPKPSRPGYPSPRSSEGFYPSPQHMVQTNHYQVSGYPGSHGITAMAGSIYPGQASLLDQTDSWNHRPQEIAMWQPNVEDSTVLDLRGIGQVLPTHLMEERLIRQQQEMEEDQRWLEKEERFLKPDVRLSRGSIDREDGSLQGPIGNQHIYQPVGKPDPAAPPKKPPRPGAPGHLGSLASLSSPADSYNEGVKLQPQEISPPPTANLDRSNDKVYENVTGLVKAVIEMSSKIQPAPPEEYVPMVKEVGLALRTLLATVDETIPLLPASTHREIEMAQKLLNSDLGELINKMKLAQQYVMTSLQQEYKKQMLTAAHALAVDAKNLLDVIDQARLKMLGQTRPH
Sequence of Ribosomal protein S6 kinase alpha-3 (P51812 whole entry): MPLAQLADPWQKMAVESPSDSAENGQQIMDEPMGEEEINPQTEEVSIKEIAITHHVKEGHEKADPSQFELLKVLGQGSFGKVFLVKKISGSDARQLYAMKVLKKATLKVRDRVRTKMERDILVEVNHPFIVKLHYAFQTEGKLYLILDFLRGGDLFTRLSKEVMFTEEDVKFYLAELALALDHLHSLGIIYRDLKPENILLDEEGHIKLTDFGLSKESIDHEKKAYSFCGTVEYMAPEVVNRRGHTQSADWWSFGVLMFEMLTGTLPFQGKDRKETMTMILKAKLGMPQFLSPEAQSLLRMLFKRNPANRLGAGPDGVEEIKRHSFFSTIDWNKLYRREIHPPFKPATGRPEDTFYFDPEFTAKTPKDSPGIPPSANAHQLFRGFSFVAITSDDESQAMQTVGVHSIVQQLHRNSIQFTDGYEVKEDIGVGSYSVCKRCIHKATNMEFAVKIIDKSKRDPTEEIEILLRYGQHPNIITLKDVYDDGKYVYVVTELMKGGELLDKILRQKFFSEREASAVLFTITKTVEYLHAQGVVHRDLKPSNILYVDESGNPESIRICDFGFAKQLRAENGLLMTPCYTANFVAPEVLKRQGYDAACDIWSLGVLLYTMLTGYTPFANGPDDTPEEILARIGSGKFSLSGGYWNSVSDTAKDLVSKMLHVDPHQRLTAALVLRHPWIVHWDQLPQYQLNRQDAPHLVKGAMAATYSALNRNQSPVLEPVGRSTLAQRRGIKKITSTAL
Sequence of DnaJ homolog subfamily A member 1 (P31689 whole entry): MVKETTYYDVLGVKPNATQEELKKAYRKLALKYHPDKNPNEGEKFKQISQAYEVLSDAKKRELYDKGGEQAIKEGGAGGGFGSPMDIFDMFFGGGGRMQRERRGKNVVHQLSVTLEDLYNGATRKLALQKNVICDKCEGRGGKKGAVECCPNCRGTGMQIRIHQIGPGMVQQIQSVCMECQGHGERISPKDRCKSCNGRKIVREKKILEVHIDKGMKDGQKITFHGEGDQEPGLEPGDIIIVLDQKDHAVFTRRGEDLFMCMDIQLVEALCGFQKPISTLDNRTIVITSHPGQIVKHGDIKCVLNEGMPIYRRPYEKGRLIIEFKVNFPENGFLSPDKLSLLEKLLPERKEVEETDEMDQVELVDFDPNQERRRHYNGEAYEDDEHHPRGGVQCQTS
Sequence of Calcium/calmodulin-dependent protein kinase type II subunit delta (Q13557 whole entry): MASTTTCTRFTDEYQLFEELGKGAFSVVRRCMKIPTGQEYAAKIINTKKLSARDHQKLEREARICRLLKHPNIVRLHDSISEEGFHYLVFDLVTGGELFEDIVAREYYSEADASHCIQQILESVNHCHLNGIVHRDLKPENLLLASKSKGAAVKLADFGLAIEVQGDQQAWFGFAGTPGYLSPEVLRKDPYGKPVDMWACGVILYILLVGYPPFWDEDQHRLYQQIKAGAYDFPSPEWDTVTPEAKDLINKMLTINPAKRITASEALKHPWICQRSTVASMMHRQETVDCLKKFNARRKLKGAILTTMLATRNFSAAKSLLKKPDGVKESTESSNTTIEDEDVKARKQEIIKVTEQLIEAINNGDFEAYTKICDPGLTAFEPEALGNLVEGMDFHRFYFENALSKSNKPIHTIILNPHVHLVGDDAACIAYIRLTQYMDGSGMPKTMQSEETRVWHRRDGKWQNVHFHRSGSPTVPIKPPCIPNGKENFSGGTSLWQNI

Row | Compound | Kd [1] | Kd [2] | Kd [3] | Kd (Focal adhesion kinase 1) | Kd [4] | Kd [5] | Kd [6] | Kd [7]
1 | Cc1ccc(NC(=O)c2ccc(CN3CC[C@H](N(C)C)C3)c(C(F)(F)F)c2)cc1Nc1nccc(-c2cncnc2)n1 [BAFETINIB] | > 30 µM (inactive) | > 30 µM (inactive) | > 30 µM (inactive) | > 30 µM (inactive) | > 30 µM (inactive) | > 30 µM (inactive) | > 30 µM (inactive) | > 30 µM (inactive)
2 | O=C(O)[C@]1(Cc2cccc(Nc3nccs3)n2)CC[C@@H](Oc2cccc(Cl)c2F)CC1 [MK-5108] | > 30 µM (inactive) | > 30 µM (inactive) | > 30 µM (inactive) | > 30 µM (inactive) | 2.47 µM (active) | > 30 µM (inactive) | > 30 µM (inactive) | > 30 µM (inactive)
3 | Cc1ccc(-n2nc(C(C)(C)C)cc2NC(=O)NCc2cc(F)ccc2Oc2ccc3c(cnn3CCO)c2)cc1 [PEXMETINIB] | > 30 µM (inactive) | > 30 µM (inactive) | > 30 µM (inactive) | > 30 µM (inactive) | > 30 µM (inactive) | > 30 µM (inactive) | > 30 µM (inactive) | > 30 µM (inactive)
4 | CNC(=O)c1ccc(-c2cnc3ncc(Cc4ccc5ncccc5c4)n3n2)cc1F [CAPMATINIB] | > 30 µM (inactive) | > 30 µM (inactive) | > 30 µM (inactive) | > 30 µM (inactive) | > 30 µM (inactive) | > 30 µM (inactive) | > 30 µM (inactive) | > 30 µM (inactive)

Results, then the compound that gave them:

Row | Kd [1] | Kd [2] | Kd [3] | Kd (Focal adhesion kinase 1) | Kd [4] | Kd [5] | Kd [6] | Kd [7] | Compound
5 | > 30 µM (inactive) | > 30 µM (inactive) | > 30 µM (inactive) | > 30 µM (inactive) | > 30 µM (inactive) | > 30 µM (inactive) | > 30 µM (inactive) | > 30 µM (inactive) | COc1ccc(-c2ccc3c(N4CCOC[C@@H]4C)nc(N4CCOC[C@@H]4C)nc3n2)cc1CO [AZD-8055]
6 | > 30 µM (inactive) | > 30 µM (inactive) | > 30 µM (inactive) | > 30 µM (inactive) | > 30 µM (inactive) | > 30 µM (inactive) | > 30 µM (inactive) | > 30 µM (inactive) | COc1cc(CCc2cc(NC(=O)c3ccc(N4C[C@@H](C)N[C@@H](C)C4)cc3)n[nH]2)cc(OC)c1 [AZD-4547]
